The values below come from patent US8530516B2, “Promoting cycling of ApoE4 isoform” (Board of Regents, The University of Texas System, priority 2009, dated 2013).

Test [1] deals with T1, NHE5 (Homo sapiens, UniProt Q14940).
T1 sequence (Q14940 1-896): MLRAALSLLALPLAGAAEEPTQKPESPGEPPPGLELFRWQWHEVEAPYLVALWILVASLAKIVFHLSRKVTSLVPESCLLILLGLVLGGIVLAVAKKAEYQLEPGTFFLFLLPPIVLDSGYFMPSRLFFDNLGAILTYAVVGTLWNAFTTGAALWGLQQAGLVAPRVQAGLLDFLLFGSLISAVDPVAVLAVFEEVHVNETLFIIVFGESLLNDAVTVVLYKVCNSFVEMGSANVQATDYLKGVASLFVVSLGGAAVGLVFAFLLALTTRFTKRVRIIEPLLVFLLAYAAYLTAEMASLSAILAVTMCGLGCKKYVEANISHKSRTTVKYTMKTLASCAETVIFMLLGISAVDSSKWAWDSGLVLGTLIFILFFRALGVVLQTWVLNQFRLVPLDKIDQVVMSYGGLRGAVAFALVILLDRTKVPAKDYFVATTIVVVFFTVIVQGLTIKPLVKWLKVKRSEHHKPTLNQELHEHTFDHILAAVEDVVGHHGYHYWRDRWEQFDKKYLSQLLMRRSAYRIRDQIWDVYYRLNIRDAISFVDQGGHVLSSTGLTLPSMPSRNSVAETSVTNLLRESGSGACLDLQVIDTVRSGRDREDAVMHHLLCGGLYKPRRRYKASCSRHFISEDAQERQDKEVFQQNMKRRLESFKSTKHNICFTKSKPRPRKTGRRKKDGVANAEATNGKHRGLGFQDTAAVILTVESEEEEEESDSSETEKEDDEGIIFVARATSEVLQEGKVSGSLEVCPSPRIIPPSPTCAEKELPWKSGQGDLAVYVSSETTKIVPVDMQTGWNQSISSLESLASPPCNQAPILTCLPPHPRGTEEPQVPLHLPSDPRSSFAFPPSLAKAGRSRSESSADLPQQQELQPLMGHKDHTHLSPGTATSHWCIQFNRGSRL
The settings on record: cited from earlier work.

Test [2] concerns ApoE receptors (Apoer2). As to the kind of experiment: recycling of ApoE receptors in the presence of ApoE4 / ApoE3. Format: cell-based.
The target in test [3] is NHE-3 (Homo sapiens, UniProt P48764). The settings on record: cited from earlier work.
Sequence of NHE-3 (P48764 26-834, species assumed): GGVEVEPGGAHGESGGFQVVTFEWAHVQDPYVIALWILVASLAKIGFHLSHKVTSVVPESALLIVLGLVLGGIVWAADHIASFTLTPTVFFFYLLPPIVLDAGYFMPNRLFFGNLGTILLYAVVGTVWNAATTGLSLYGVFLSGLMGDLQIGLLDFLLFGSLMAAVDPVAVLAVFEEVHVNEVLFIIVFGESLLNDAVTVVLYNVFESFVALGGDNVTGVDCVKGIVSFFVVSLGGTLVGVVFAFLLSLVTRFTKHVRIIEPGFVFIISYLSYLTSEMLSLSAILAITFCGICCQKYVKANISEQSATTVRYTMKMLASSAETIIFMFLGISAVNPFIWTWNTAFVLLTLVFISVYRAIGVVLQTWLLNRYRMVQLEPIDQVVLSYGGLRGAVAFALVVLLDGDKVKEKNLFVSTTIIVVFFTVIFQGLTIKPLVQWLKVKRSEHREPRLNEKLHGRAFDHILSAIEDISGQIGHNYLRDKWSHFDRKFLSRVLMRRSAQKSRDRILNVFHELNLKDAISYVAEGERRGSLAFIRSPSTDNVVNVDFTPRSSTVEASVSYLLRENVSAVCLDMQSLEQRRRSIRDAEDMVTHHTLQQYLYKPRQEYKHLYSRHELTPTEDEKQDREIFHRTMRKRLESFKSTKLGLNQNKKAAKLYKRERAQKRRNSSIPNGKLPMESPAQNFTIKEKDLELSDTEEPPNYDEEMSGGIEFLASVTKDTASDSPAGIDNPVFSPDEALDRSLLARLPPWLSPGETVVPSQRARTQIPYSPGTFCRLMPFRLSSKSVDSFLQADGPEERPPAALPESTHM
Test [4] deals with T2, NHE-2 isoform (Homo sapiens, UniProt Q9UBY0).
T2 sequence (Q9UBY0 1-812): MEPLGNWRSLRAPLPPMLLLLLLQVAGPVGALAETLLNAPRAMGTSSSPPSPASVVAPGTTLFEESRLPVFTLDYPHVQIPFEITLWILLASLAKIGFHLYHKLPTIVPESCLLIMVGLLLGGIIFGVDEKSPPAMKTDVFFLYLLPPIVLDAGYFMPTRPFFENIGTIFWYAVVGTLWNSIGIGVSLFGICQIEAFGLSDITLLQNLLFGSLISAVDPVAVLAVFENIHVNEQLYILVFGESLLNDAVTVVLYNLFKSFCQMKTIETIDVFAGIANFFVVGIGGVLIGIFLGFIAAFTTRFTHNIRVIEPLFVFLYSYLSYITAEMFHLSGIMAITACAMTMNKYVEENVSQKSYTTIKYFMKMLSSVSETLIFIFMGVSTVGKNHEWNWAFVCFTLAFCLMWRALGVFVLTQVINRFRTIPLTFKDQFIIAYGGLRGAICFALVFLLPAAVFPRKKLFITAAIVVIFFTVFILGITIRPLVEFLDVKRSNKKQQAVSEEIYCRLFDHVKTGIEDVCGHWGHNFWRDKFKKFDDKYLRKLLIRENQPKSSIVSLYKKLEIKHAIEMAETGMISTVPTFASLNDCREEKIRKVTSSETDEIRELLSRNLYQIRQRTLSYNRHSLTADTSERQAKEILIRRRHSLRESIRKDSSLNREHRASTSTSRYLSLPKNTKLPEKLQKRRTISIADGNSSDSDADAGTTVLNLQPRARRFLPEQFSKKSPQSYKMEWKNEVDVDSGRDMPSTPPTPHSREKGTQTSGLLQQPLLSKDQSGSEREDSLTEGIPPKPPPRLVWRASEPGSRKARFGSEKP
The settings on record: cited from earlier work.

For the molecule `COc1ccc2c3c([nH]c2c1)C(C)=NCC3` [hamaline], in test [1], the NHE5 selectivity result was “NHE5 selective”. On to `CC(C)NCC(O)c1ccc(O)c(O)c1` (stereo not shown) [isoproterenol], for which the ApoE receptor recycling entry in test [2] (activation of beta-adrenergic receptors, in the presence or absence of IBMX) was “restores normal ApoE receptor recycling”. For the molecule `CC(=Cc1cc(C)ccc1C=C(C)C(=O)NC(=N)N)C(=O)N=C(C)C.Cl.Cl` [S3226, 3-[2-(3-guanidino-2-methyl-3-oxo-propenyl)-5-methyl-phenyl]-N-isopropylidene-2-methyl-acrylamide dihydro-chloride], in test [3], the “NHE-3 potency and specificity” value is “relatively potent and specific”. With `CN1Cc2c(Cl)cc(Cl)cc2C(c2ccc(S(=O)(=O)N=C(N)N)cc2)C1` (stereo not shown) [N-diaminomethylene-4-(6,8-dichloro-2-methyl-1,2,3,4-tetrahydroisoquinolin-4-yl)benzenesulfonamide], the NHE5 selectivity result in test [1] is “NHE5 selective”. For the molecule `COc1ccc(C2CNC(=O)C2)cc1OC1CCCC1` (stereo not shown) [rolipram], the “effect on altering the recycling properties of Apoer2” value in test [2] (in the presence of ApoE3) is “negligible effect”. The “recycling deficit induced by ApoE4” value in test [2] (in the presence of ApoE4) is “completely normalizes”. Regarding `CS(=O)(=O)O.CS(=O)(=O)c1cc(C(=O)N=C(N)N)ccc1N1CCCCC1` [HOE 694], the NHE-2 isoform selectivity entry in test [4] was “relatively selective”.
